Converted amounts (≈) assume the structure as drawn. Read-outs that look alike come from different tables or passages of the source. Marks after values point to notes of the source that are not given here.
Legend:
[1] = Pharmacokinetic experiment of the compounds in mice; format: in vivo; details: mouse, plasma, 2 mg/kg, Male CD-1 mice, fasting, 2 mpk; for Vd / clearance / AUC(0-t) / half-life / C0: intravenous injection; for Vd: read-out: Apparent distribution volume Vdss; for clearance: read-out: Clearance rate Cl; for AUC(0-t): read-out: Exposure AUC0-last; for half-life: read-out: Half-life period T1/2 (converted); for C0: read-out: Initial concentration C0; for bioavailability / Cmax: second section of Table 7 (intravenous injection); for Cmax: read-out: Maximum concentration Cmax
Protocol: In this experiment, six CD-1 mice (males) were divided into 2 groups (2 groups) according to their similar body weight. Group 1 and Group 2 were given respectively a single intravenous and intraperitoneal injection of the compounds of embodiment 13, embodiment 17, embodiment 32 and embodiment 34, each compound was at 2 mg/kg. The vehicles for intravenous and intraperitoneal injections were 5% dimethyl sulfoxide/95% water (10% polyoxyethylene castor oil), K2-EDTA (anticoagulant).
About 0.02 mL of blood samples from the saphenous vein were collected from all experimental animals, and the actual blood collection time was recorded. In this experiment, the deviation between the actual blood collection time and the theoretical blood collection time was in accordance with the regulations (the deviation of time points within 1 hour after administration were within 1 minute, and other deviations were within 5% of the theoretical time). After the blood samples were collected, they were immediately transferred to labeled centrifuge tubes containing K2 EDTA (0.5 M), followed by centrifugation (3,000 g, 4° C., 15 minutes) and the plasma was collected. The plasma was transferred to pre-cooled centrifuge tubes, quickly frozen in dry ice, and stored in an ultra-low temperature refrigerator at −60° C. or lower until LC-MS/MS analysis.

[2] = tested on: Pseudomonas aeruginosa PA14; test: Lungs of immunosuppressed mice infected with Pseudomonas aeruginosa (1), lung bacterial load; format: in vivo; details: 24 hours after infection, day, ip at 2 h, 4 h, 6 h, 8 h
Protocol: Pseudomonas aeruginosa PA14. 64 mice were intraperitoneally injected with 150 mg/kg cyclophosphamide on the first day and the fourth day to give immunosuppressed mice. […] [table] The mice were injected with 50 μL of bacterial solution (2×10^3 CFU) through the airway. 2 hours after the infection, 4 mice in the model group was sacrificed by removing cervical vertebra. Two hours after infection, the drugs were administered by groups, and the mice were administered intraperitoneally once at 2 hours, 4 hours, 6 hours, and 8 hours, a total of 4 times. Mice of each group were sacrificed by removing cervical vertebra 24 hours after infection, lung and kidney tissues were taken aseptically and put into sterilized tissue homogenate tubes, weighed, and an appropriate amount of normal saline (NS) was added, the mixture was homogenized by a homogenizer for 1 min, the lung tissues of the model group were diluted 10^4, 10^5, 10^6 times, the lung tissues of each administration group were diluted 10, 100 times, the kidney tissues of the model group were diluted 10^2, […], 10^4 times, and the lung tissues of each administration group were diluted 10 times, the obtained mixtures were coated on TSA plates using spiral coater, then incubated at 37° C. overnight, and the CFU was counted with a colony counter. Graphpad Prism mapping software was used to make scatter plots of lung tissue CFU. SPSS19.0 software was used to count CFU and average body weight, and analysis of variance was used to analyze differences between groups.

[3] = tested on: K. pneumoniae ATCC BAA-205 (TEM-1/SHV-1/SHV-12); test: MIC by micro-liquid dilution method (CLSI); format: cell-based, Klebsiella pneumonia; details: Klebsiella pneumoniae, ATCCBAA205
[4] = tested on: K. pneumoniae ATCC BAA-2470 (NDM-1); test: MIC by micro-liquid dilution method (CLSI); format: cell-based, Klebsiella pneumonia; details: Klebsiella pneumoniae, ATCCBAA2470
P. aeruginosa ATCC 35151 = test: MIC by micro-liquid dilution method (CLSI); format: cell-based; details: Pseudomonas aeruginosa
[5] = tested on: K. pneumoniae ATCC BAA-1705 (KPC-2); test: MIC by micro-liquid dilution method (CLSI); format: cell-based, Klebsiella pneumonia; details: Klebsiella pneumoniae, ATCCBAA1705
[6] = tested on: E. coli ATCC BAA-2523 (OXA-48); test: MIC by micro-liquid dilution method (CLSI); format: cell-based; details: Escherichia coli, ATCCBAA2523
From the text: (§1) Three strains of Klebsiella pneumonia, K. pneumoniae ATCC BAA-205 (TEM-1/SHV-1/SHV-12), K. pneumoniae ATCC BAA-1705 (KPC-2), K. pneumoniae ATCC BAA-2470 (NDM-1); three strains of Pseudomonas aeruginosa, P. aeruginosa NCTC13437 (VIM-10; VEB-1), P. aeruginosa PA 14 and P. aeruginosa ATCC 35151; four strains of Escherichia coli, E. coli NCTC 13476 (IMP-1 type), E. coli ATCC BAA-2523 (OXA-48), E. coli MG1655Δtol C, E. coli ATCC 25922; one strain of Acinetobacter baumannii, A. baumannii ATCC 17978 and one strain of Staphylococcus aureus, S. aureus NRS384 were used to determine the minimum inhibitory concentration (MIC) of the compounds by micro-liquid dilution method according to the Institute of Clinical and Laboratory Standard (CLSI) requirements.

P. aeruginosa PA 14 = test: MIC by micro-liquid dilution method (CLSI); format: cell-based; details: Pseudomonas aeruginosa, PA14
From the text: as §1

[7] = tested on: E. coli NCTC 13476 (IMP-1 type); test: MIC by micro-liquid dilution method (CLSI); format: cell-based; details: Escherichia coli
From the text: as §1

E. coli MG1655Δtol C = test: MIC by micro-liquid dilution method (CLSI); format: cell-based; details: Escherichia coli
From the text: as §1

E. coli ATCC 25922 = test: MIC by micro-liquid dilution method (CLSI); format: cell-based; details: Escherichia coli
A. baumannii ATCC 17978 = test: MIC by micro-liquid dilution method (CLSI); format: cell-based; details: Acinetobacter baumannii
[8] = tested on: Acinetobacter baumannii ATCC-BAA-1793; test: MIC on Acinetobacter baumannii strains; format: cell-based; details: ATCCBAA1793, ATCC-BAA-1793, read-out: MIC
From the text: (§2) Twelve strains of Acinetobacter baumannii, A. baumannii ATCC 17978 (ATCC-BAA-1605, ATCC-BAA-1789, ATCC-BAA-1790, ATCC-BAA-1791, ATCC-BAA-1792, ATCC-BAA-1793, ATCC-BAA-1794, ATCC-BAA-1795, ATCC-BAA-1799, ATCC-BAA-1800, ATCC 19606, ATCC 17978) were used to determine the minimum inhibitory concentration (MIC) of the compounds by micro-liquid dilution method according to the Institute of Clinical and Laboratory Standard (CLSI) requirements.

[9] = tested on: Acinetobacter baumannii ATCC-BAA-1791; test: MIC on Acinetobacter baumannii strains; format: cell-based; details: ATCCBAA1791
From the text: as §2

[10] = tested on: Acinetobacter baumannii ATCC-BAA-1605; test: MIC on Acinetobacter baumannii strains; format: cell-based; details: ATCCBAA1605, ATCC-BAA-1605, read-out: MIC
From the text: as §2

[11] = K. pneumoniae ATCCBAA-205, read-out: MIC
[12] = K. pneumoniae ATCCBAA-2470, read-out: MIC
[13] = K. pneumoniae ATCCBAA-1705, read-out: MIC
[14] = P. aeruginosa PA 14, read-out: MIC
[15] = E. coli NCTC13476, read-out: MIC
[16] = E. coli ATCC25922, read-out: MIC
[17] = A. baumannii ATCC17978, read-out: MIC
[18] = E. coli ATCCBAA-2523, read-out: MIC

Row | SMILES | Vd [1] | clearance [1] | AUC(0-t) [1] | half-life [1] | C0 [1] | bioavailability [1] | Cmax [1] | MIC [3, 11] | MIC [4, 12] | MIC (P. aeruginosa ATCC 35151; ATCC35151) | MIC [5, 13] | MIC [6] | MIC (P. aeruginosa PA 14; [14]) | MIC [7, 15] | MIC (E. coli MG1655Δtol C) | MIC (A. baumannii ATCC 17978; [17]) | also measured
1 | CC1(C)[C@H](NC(=O)/C(=N\O[C@@H](COc2ccc3c(c2)CN(C(=N)NCCCN)C3)C(=O)O)c2csc(N)n2)C(=O)N1OS(=O)(=O)O [Compound 34] | 0.274 L/kg | 10.4 mL/min/kg | 4.95 µM·h | 22.6 min | 14.4 µM | 93.3% | 5.55 µM | – | – | – | – | – | – | – | – | – | LOG10-of bacterial load ([2]; total dosage 60 mg/kg): 0**; LOG10-of bacterial load ([2]; total dosage 120 mg/kg): 0**; LOG10-of bacterial load ([2]; total dosage 200 mg/kg): 1.10 ± 1.75
2 | CC1(C)[C@H](NC(=O)/C(=N\OCCOc2ccc3c(c2)CCN(C(=N)N2CCNCC2)C3)c2csc(N)n2)C(=O)N1OS(=O)(=O)O [Compound 11] | – | – | – | – | – | – | – | 16 µg/mL (≈ 24 µM) | 1 µg/mL (≈ 1.5 µM) | ≤ 0.125 µg/mL | 1 µg/mL (≈ 1.5 µM) | ≤ 0.125 µg/mL | 4 µg/mL (≈ 6.01 µM) | 0.5 µg/mL (≈ 0.751 µM) | ≤ 0.125 µg/mL | 2 µg/mL (≈ 3 µM) | MIC (E. coli ATCC 25922; [16]): 0.25 µg/mL (≈ 0.376 µM)
3 | CC1(C)[C@H](NC(=O)/C(=N\OCCOc2ccc3c(c2)CN(C(=N)N)CC3)c2csc(N)n2)C(=O)N1OS(=O)(=O)O [Compound 10] | – | – | – | – | – | – | – | 16 µg/mL (≈ 26.8 µM) | 4 µg/mL (≈ 6.7 µM) | – | 4 µg/mL (≈ 6.7 µM) | – | 8 µg/mL (≈ 13.4 µM) | 2 µg/mL (≈ 3.35 µM) | ≤ 0.125 µg/mL | 4 µg/mL (≈ 6.7 µM) | MIC (P. aeruginosa ATCC 35151; P. aeruginosa ATCC35151, read-out: MIC): 0.25 µg/mL (≈ 0.419 µM); MIC [6, 18]: 0.25 µg/mL (≈ 0.419 µM); MIC (E. coli ATCC 25922; [16]): 1 µg/mL (≈ 1.68 µM)
4 | CC1(C)[C@H](C(=O)O)N2C(=O)C[C@H]2S1(=O)=O [Sulbactam, reference compound] | – | – | – | – | – | – | – | – | – | 64 µg/mL (≈ 274 µM) | – | 64 µg/mL (≈ 274 µM) | – | – | 32 µg/mL (≈ 137 µM) | – | MIC [3]: 64 µg/mL (≈ 274 µM); MIC [4]: > 128 µg/mL; MIC [5]: > 128 µg/mL; MIC (P. aeruginosa PA 14): 8 µg/mL (≈ 34.3 µM); MIC ([7]; NCTC13476): > 128 µg/mL; MIC (E. coli ATCC 25922; ATCC25922): 64 µg/mL (≈ 274 µM); MIC (A. baumannii ATCC 17978; ATCC17978): 2 µg/mL (≈ 8.57 µM)
5 | CC1(C)[C@H](NC(=O)/C(=N\O[C@@H](COc2ccc3c(c2)CN(C(=N)N(CCCN)CCCN)C3)C(=O)O)c2csc(N)n2)C(=O)N1OS(=O)(=O)O [Compound 32] | 0.0636 L/kg | 1.57 mL/min/kg | 5.77 µM·h | 30.8 min | 11.3 µM | 140% | 8 µM | – | – | – | – | – | – | – | – | – | LOG10-of bacterial load ([2]; total dosage 60 mg/kg): 0**; LOG10-of bacterial load ([2]; total dosage 120 mg/kg): 0**; LOG10-of bacterial load ([2]; total dosage 200 mg/kg): 0**
6 | CC1(C)[C@H](NC(=O)/C(=N\OCCOc2ccc3c(c2)CCN(C(=N)NC2CCNCC2)C3)c2csc(N)n2)C(=O)N1OS(=O)(=O)O [Compound 12] | – | – | – | – | – | – | – | 16 µg/mL (≈ 23.5 µM) | 1 µg/mL (≈ 1.47 µM) | ≤ 0.125 µg/mL | 1 µg/mL (≈ 1.47 µM) | ≤ 0.125 µg/mL | 2 µg/mL (≈ 2.94 µM) | 0.25 µg/mL (≈ 0.368 µM) | ≤ 0.125 µg/mL | 0.5 µg/mL (≈ 0.736 µM) | MIC (E. coli ATCC 25922; ATCC25922): ≤ 0.125 µg/mL
7 | CC1(C)[C@H](NC(=O)/C(=N\OCCOc2ccc3c(c2)CN(C(=N)NCCCN)C3)c2csc(N)n2)C(=O)N1OS(=O)(=O)O [Compound 13] | 0.281 L/kg | 8.51 mL/min/kg | 6.73 µM·h | 28.6 min | 18.9 µM | 88.4% | 5.76 µM | – | – | – | – | – | – | – | – | – | –
8 | CC1(C)[C@H](NC(=O)/C(=N\OCCOc2ccc3c(c2)CN(C(=N)N(CCCN)CCCN)C3)c2csc(N)n2)C(=O)N1OS(=O)(=O)O [Compound 17] | 0.237 L/kg | 4.6 mL/min/kg | 11 µM·h | 35.8 min | 17 µM | 131% | 10.6 µM | 2 µg/mL (≈ 2.87 µM) | 0.25 µg/mL (≈ 0.359 µM) | – | 0.25 µg/mL (≈ 0.359 µM) | – | 0.5 µg/mL (≈ 0.718 µM) | – | – | ≤ 0.125 µg/mL | MIC [8]: 4 µg/mL (≈ 5.74 µM); MIC [9]: 0.25 µg/mL (≈ 0.359 µM); MIC [10]: 4 µg/mL (≈ 5.74 µM); MIC [6, 18]: ≤ 0.125 µg/mL
